Converted amounts (≈) assume the structure as drawn. Counter-ions that a name gives are not always drawn.

Assay [1] has as its system Mycobacterium tuberculosis. Description: Antimycobacterial activity against Mycobacterium tuberculosis H37Rv assessed as growth inhibition after 45 days by Canetti proportional method. The class given is functional. To be noted: for MIC: Mycobacterium tuberculosis, H37Rv.
Assay [2] concerns Mycobacterium tuberculosis. The experiment in a line: Antimycobacterial activity against Mycobacterium tuberculosis. Type of assay: functional.

A word on the MIC: it is the lowest concentration found to suppress growth. Take `CC1(C)[C@@H]2CC[C@@]1(C)[C@H](O)[C@@H]2NC(=O)[C@@H](O)Cc1ccccc1`: in assay [1], the “-logMIC” value is 5.201 and the MIC was 6.3 µM (≈ 2 µg/mL). `CC[C@@H](CO)NCCN[C@@H](CC)CO` [ETHAMBUTOL HYDROCHLORIDE]: the MIC in assay [1] was determined as 7.22 µM.

Regarding `CC1(C)[C@@H]2CC[C@@]1(C)[C@H](O)[C@@H]2NC(=O)c1ccco1`, in assay [1], the “-logMIC” value came out at 6.42 and the MIC is 0.38 µM (≈ 0.1 µg/mL).

With `CC1(C)[C@@H]2CC[C@@]1(C)[C@H](O)[C@@H]2NC(=O)CCc1ccccc1`, in assay [1], the “-logMIC” value was determined as 6.481 and the MIC came out at 0.33 µM (≈ 0.0995 µg/mL). For the compound `CC(C)[C@H](O)C(=O)N[C@@H]1[C@H]2CC[C@@](C)([C@@H]1O)C2(C)C`, in assay [1], the “-logMIC” value was determined as 6.131 and the MIC came out at 0.74 µM (≈ 0.199 µg/mL).

On to `CC[C@H](C)[C@H](O)C(=O)N[C@@H]1[C@H]2CC[C@@](C)([C@@H]1O)C2(C)C`, for which, in assay [1], the “-logMIC” value is 5.151 and the MIC is 7.06 µM (≈ 2 µg/mL). For `CC1(C)[C@@H]2CC[C@@]1(C)[C@H](O)[C@@H]2NC(=O)c1cccnc1` the same measures were 6.444 and 0.36 µM (≈ 0.0988 µg/mL). In the same order, the values of `CCNC(=O)N[C@@H]1[C@H]2CC[C@@](C)([C@@H]1O)C2(C)C` are 6.387 and 0.41 µM (≈ 0.0985 µg/mL).

As for `CSCC[C@H](O)C(=O)N[C@@H]1[C@H]2CC[C@@](C)([C@@H]1O)C2(C)C`, in assay [1], the “-logMIC” value came to 6.18 and the MIC was found to be 0.66 µM (≈ 0.199 µg/mL). For `CC1(C)[C@@H]2CC[C@@]1(C)[C@H](O)[C@@H]2NC(=O)[C@@H](O)c1ccccc1` the same measures were 4.783 and 16.5 µM (≈ 5.01 µg/mL). Regarding `CC[C@@H](CO)NCCN[C@@H](CC)CO` [ETHAMBUTOL], the MIC in assay [2] amounted to 10 µM (≈ 2.04 µg/mL). Take `CC1(C)[C@@H]2CC[C@@]1(C)[C@H](O)[C@@H]2NC(=O)/C=C/c1ccccc1`: in assay [1], the “-logMIC” value was determined as 6.481 and the MIC is 0.33 µM (≈ 0.0988 µg/mL).

For the compound `CC(=O)Oc1ccccc1C(=O)N[C@@H]1[C@H]2CC[C@@](C)([C@@H]1O)C2(C)C`, in assay [1], the “-logMIC” value turned out to be 6.523 and the MIC is 0.3 µM (≈ 0.0994 µg/mL). For `CC1(C)[C@@H]2CC[C@@]1(C)[C@H](O)[C@@H]2NP(=O)(c1ccccc1)c1ccccc1` the same measures were 4.868 and 13.6 µM (≈ 5.01 µg/mL).

For the origin of these results see ChEMBL document CHEMBL3085639, “Novel camphane-based anti-tuberculosis agents with nanomolar activity” (2013).
